Results as given in US20230106943A1, “ENGINEERED ANTIMICROBIAL PEPTIDES AND USAGE THEREOF” (Peptilogics, Inc., priority 2021, published 2023).
Like-named read-outs stand apart in the source and are kept apart here. No end group written: not given here.

Assays:
Assay type in all cases: physicochemical
[1] = Example 6 solubility near saturation of SEQ ID NO: 1 in water at pH 5.0, 7.4, 8.1 (HPLC); conditions: for Purity of near saturation solution: water
Description: SEQ ID NO: 1 was dissolved to near saturation of different pH values.
396.69 mg of SEQ ID NO:1 was weighed out and dissolved in approximately 3 mL of HPLC-grade water resulting in a clear and colorless solution. The pH was 4.80 and the concentration approximately 132 mg/mL. The pH was adjusted with 0.08 M NaOH to pH=4.99. 1.1 mL was pulled, transferred to a serum vial, frozen and lyophilized. The remaining solution was adjusted to pH=7.40 with 0.08 M and 1 M NaOH. 1.45 mL was pulled, transferred to a serum vial, frozen and lyophilized. The remaining solution was adjusted to pH=8.00 with 0.08 M NaOH. This remaining solution (˜1.9 mL) was transferred to a serum vial, frozen and lyophilized. After lyophilization 200 μL HPLC-grade water was added to the solids in the serum vials and a colorless slurry was obtained. An additional 200 μL HPLC-grade water was added to obtain clear and colorless solutions. At pH=5.0 the solids went into solution without foaming; solids at pH=7.4 and pH=8 took longer to dissolve. These solutions (0.4 mL) were transferred to conical Eppendorf tubes. The vials were washed with 0.2 mL of HPLC grade water and the washes were combined with the respective solutions at the three different pH conditions. The samples were frozen and lyophilized. To the lyo cakes 50 μL increments of HPLC grade water was added. Transition from suspension or slurry to viscous solution was hard to capture. After adding 150 μL to 350 μL of HPLC grade water and intermittent mixing and storage at ambient temperature viscous and clear solutions were obtained which turned to gels when stored refrigerated at 2-8° C. All viscous solutions were centrifuged for 10 min at 12 krpm. No visible pellets were detected after centrifugation. Supernatants of the samples were analyzed for peptide concentration and purity by HPLC analysis.

[2] = Example 7 stability of 1 mg/mL SEQ ID NO: 1 solutions at pH 4-7, HPLC % area over storage
Description: SEQ ID NO: 1 was dissolved in sterile water for injection resulting solutions at a concentration of 1 mg/mL and pH adjusting agents were added to achieve a pH value in the range of 4-7. The pH adjusting chosen were acetate and sodium hydroxide and citric acid (for pH 4). Each of the solutions were filtered through a 0.45 um filter and samples were stored in 1 mL aliquots at 40° C., room temperature (approximately 20° C.), refrigerated conditions (5° C.), and frozen at −20° C. Samples were withdrawn at regular intervals (t=0, and Days 2, 7, 14, and 28) and analyzed by HPLC to determine if chemical degradation of the peptide could be detected in any samples. Degradation rates between samples of each pH were also analyzed.

[3] = Example 4 stability of concentrated solutions: UV-Vis Assay (method 78933)
Description: The peptide formulation of SEQ ID NO: 1 dissolved in a saline solution with a pH of 5.0±0.1 was tested for stability under either −20° C. or 40° C. with 75% relative humidity (RH). […]

## RRWVRRVRRVWRRVVRVVRRWVRR-NH2 [SEQ ID NO: 1]
[1]; pH 5, water, pH 5.0, read-out: Solubility of near saturation, Concentration
  solubility: ≥ 328 mg/mL
[1]; pH 7.4, water, pH 7.4, read-out: Solubility of near saturation, Concentration
  solubility: ≥ 228 mg/mL
[1]; pH 8.1, water, pH 8.1, read-out: Solubility of near saturation, Concentration
  solubility: ≥ 250 mg/mL
[1]; pH=5.0, read-out: solubility near saturation concentration in water
  solubility: 328 mg/mL
[1]; pH=7.4, read-out: solubility near saturation concentration in water
  solubility: 228 mg/mL
[1]; pH=8.1, read-out: solubility near saturation concentration in water
  solubility: 250 mg/mL
[1]; pH 5.0
  Purity of near saturation solution: 95.6%
[1]; pH 7.4
  Purity of near saturation solution: 97.2%
[1]; pH 8.1
  Purity of near saturation solution: 96.7%
[2]; pH 4-7 samples, after 7 days of storage at 40° C.
  impurity change by HPLC % area: no significant evidence of impurity increase
[2]; pH 4 and pH 5 made with acetic acid
  overall stability as a function of pH: maximum stability
[2]; prepared at pH 4 with citrate, after 27 days of storage at 40° C.
  impurity change by HPLC % area: increase in impurities
[2]; prepared at pH 7, after 27 days of storage at 40° C.
  impurity change by HPLC % area: increase in impurities
[3]; 15.3 mg/mL solution, 40° C. and 75% RH, 1 Month
  UV-Vis Assay: 102.0%
[3]; 15.3 mg/mL solution, 40° C. and 75% RH, 2 Month
  UV-Vis Assay: 102.2%
[3]; 15.3 mg/mL solution, 40° C. and 75% RH, 3 Month
  UV-Vis Assay: 103.9%
[3]; 15.3 mg/mL solution, 40° C. and 75% RH, 6 Month
  UV-Vis Assay: 102.5%
[3]; 15.3 mg/mL solution, −20° C., 0 Month
  UV-Vis Assay: 102.0%
[3]; 15.3 mg/mL solution, −20° C., 1 Month
  UV-Vis Assay: 101.5%
[3]; 15.3 mg/mL solution, −20° C., 2 Month
  UV-Vis Assay: 104.0%
[3]; 15.3 mg/mL solution, −20° C., 3 Month
  UV-Vis Assay: 105.1%
[3]; 15.3 mg/mL solution, −20° C., 6 Month
  UV-Vis Assay: 103.9%
[3]; 15.3 mg/mL solution, −20° C., 9 Month
  UV-Vis Assay: 103.1%
[3]; 36.7 mg/mL solution, 40° C. and 75% RH, 1 Month
  UV-Vis Assay: 100.3%
[3]; 36.7 mg/mL solution, 40° C. and 75% RH, 2 Month
  UV-Vis Assay: 101.3%
[3]; 36.7 mg/mL solution, 40° C. and 75% RH, 3 Month
  UV-Vis Assay: 99.2%
[3]; 36.7 mg/mL solution, 40° C. and 75% RH, 6 Month
  UV-Vis Assay: 100.1%
[3]; 36.7 mg/mL solution, −20° C., 0 Month
  UV-Vis Assay: 98.1%
[3]; 36.7 mg/mL solution, −20° C., 1 Month
  UV-Vis Assay: 100.0%
[3]; 36.7 mg/mL solution, −20° C., 2 Month
  UV-Vis Assay: 100.6%
[3]; 36.7 mg/mL solution, −20° C., 3 Month
  UV-Vis Assay: 101.7%
[3]; 36.7 mg/mL solution, −20° C., 6 Month
  UV-Vis Assay: 99.5%
[3]; 36.7 mg/mL solution, −20° C., 9 Month
  UV-Vis Assay: 100.3%
[3]; 72.4 mg/mL solution, 40° C. and 75% RH, 1 Month
  UV-Vis Assay: 97.8%
[3]; 72.4 mg/mL solution, 40° C. and 75% RH, 2 Month
  UV-Vis Assay: 98.6%
[3]; 72.4 mg/mL solution, 40° C. and 75% RH, 3 Month
  UV-Vis Assay: 93.4%
[3]; 72.4 mg/mL solution, 40° C. and 75% RH, 6 Month
  UV-Vis Assay: 95.4%
[3]; 72.4 mg/mL solution, −20° C., 0 Month
  UV-Vis Assay: 90.1%
[3]; 72.4 mg/mL solution, −20° C., 1 Month
  UV-Vis Assay: 97.6%
[3]; 72.4 mg/mL solution, −20° C., 2 Month
  UV-Vis Assay: 98.2%
[3]; 72.4 mg/mL solution, −20° C., 3 Month
  UV-Vis Assay: 94.5%
[3]; 72.4 mg/mL solution, −20° C., 6 Month
  UV-Vis Assay: 97.0%
[3]; 72.4 mg/mL solution, −20° C., 9 Month
  UV-Vis Assay: 99.0%
[3]; 81.4 mg/mL solution, −20° C., 0 Month
  UV-Vis Assay: 105.0 % LC
